Results published in article PMC9747611 (Hypertension Research, 2022).

Test: Safety: adverse events, ECG, vital signs
Assay type: in vivo, human
Protocol: Plasma PD measures included concentrations of aldosterone, 18-hydroxycorticosterone, corticosterone, 11-deoxycorticosterone, cortisol (free and total), 11-deoxycortisol, ACTH, sodium, chloride, and potassium. AUCs were calculated using a noncompartmental analysis and the linear trapezoidal/linear interpolation method. Urine PD measures included concentrations of aldosterone, cortisol (free and total), tetrahydroaldosterone, sodium, chloride, potassium, creatinine, and phosphorus. Other PD measures were seated, orthostatic, and positional changes in vital signs, as well as changes in body weight and BMI. Safety assessments involved adverse events, physical examinations, ECGs, orthostatic vital signs, and clinical laboratory evaluations.
Subjects who received placebo were pooled into 2 treatment groups: placebo with low-salt diet and placebo with normal-salt diet. Descriptive statistics were calculated for PK, PD, and safety measures. […] Data are presented as change from baseline in least squares mean (90% CI) AUC0-12h of plasma aldosterone on days 1 and 10. The results of the exploratory dose proportionality power model were assessed using the Smith criteria (0.9031, 1.0969) and the less stringent Hummel criteria (0.6990, 1.3010).

[1] = 0.5 mg once daily 10 days, normal-salt diet, n = 9
[2] = 1.5 mg once daily 10 days, normal-salt diet, n = 9
[3] = 2.5 mg once daily 10 days, low-salt diet, n = 9
[4] = 2.5 mg once daily 10 days, normal-salt diet, n = 6
[5] = 5.0 mg once daily 10 days, low-salt diet, n = 9
[6] = 0.5-5.0 mg once daily for 10 days

With `CCC(=O)N[C@@H]1CCCc2c(-c3ccc4c(c3)CCC(=O)N4C)cncc21` [baxdrostat] the Abdominal pain [1] was 0 (0.0) n (%), the Anxiety [1] was 0 (0.0) n (%) and the “Any AE” value [1] was 1 (11.1) n (%). The “Any TEAE” value [1] was 1 (11.1) n (%), the “Any TEAE leading to death” value [1] was 0 (0.0) n (%) and the “Any TEAE leading to discontinuation” value [1] was 0 (0.0) n (%). For the same compound, the “Any drug-related treatment-emergent SAE” value [1] was 0 (0.0) n (%), the “Any treatment-emergent SAE” value [1] was 0 (0.0) n (%) and the Back pain [1] was 0 (0.0) n (%). For the same compound, the Constipation [1] was 0 (0.0) n (%), the Dizziness [1] was 0 (0.0) n (%) and the Dizziness postural [1] was 0 (0.0) n (%). For the same compound, the Dry throat [1] was 0 (0.0) n (%), the Dysphonia [1] was 0 (0.0) n (%) and the Eye irritation [1] was 0 (0.0) n (%). For the same compound, the Headache [1] was 1 (11.1) n (%), the Nausea [1] was 0 (0.0) n (%) and the Palpitations [1] was 0 (0.0) n (%). The Presyncope [1] was 0 (0.0) n (%), the Rhinitis [1] was 0 (0.0) n (%) and the Ventricular tachycardia [1] was 0 (0.0) n (%). The Viral infection [1] was 0 (0.0) n (%), the Abdominal pain [2] was 0 (0.0) n (%) and the Anxiety [2] was 0 (0.0) n (%). The “Any AE” value [2] was 1 (11.1) n (%), the “Any TEAE” value [2] was 1 (11.1) n (%) and the “Any TEAE leading to death” value [2] was 0 (0.0) n (%). For the same compound, the “Any TEAE leading to discontinuation” value [2] was 0 (0.0) n (%), the “Any drug-related treatment-emergent SAE” value [2] was 0 (0.0) n (%) and the “Any treatment-emergent SAE” value [2] was 0 (0.0) n (%). For the same compound, the Back pain [2] was 0 (0.0) n (%), the Constipation [2] was 1 (11.1) n (%) and the Dizziness [2] was 0 (0.0) n (%). For the same compound, the Dizziness postural [2] was 0 (0.0) n (%), the Dry throat [2] was 0 (0.0) n (%) and the Dysphonia [2] was 0 (0.0) n (%). For the same compound, the Eye irritation [2] was 0 (0.0) n (%), the Headache [2] was 0 (0.0) n (%) and the Nausea [2] was 0 (0.0) n (%). For the same compound, the Palpitations [2] was 0 (0.0) n (%), the Presyncope [2] was 0 (0.0) n (%) and the Rhinitis [2] was 0 (0.0) n (%). The Ventricular tachycardia [2] was 0 (0.0) n (%), the Viral infection [2] was 0 (0.0) n (%) and the Abdominal pain [3] was 0 (0.0) n (%). For the same compound, the Anxiety [3] was 0 (0.0) n (%), the “Any AE” value [3] was 3 (33.3) n (%) and the “Any TEAE” value [3] was 3 (33.3) n (%). For the same compound, the “Any TEAE leading to death” value [3] was 0 (0.0) n (%), the “Any TEAE leading to discontinuation” value [3] was 0 (0.0) n (%) and the “Any drug-related treatment-emergent SAE” value [3] was 0 (0.0) n (%). For the same compound, the “Any treatment-emergent SAE” value [3] was 0 (0.0) n (%), the Back pain [3] was 0 (0.0) n (%) and the Constipation [3] was 0 (0.0) n (%). For the same compound, the Dizziness [3] was 0 (0.0) n (%), the Dizziness postural [3] was 1 (11.1) n (%) and the Dry throat [3] was 0 (0.0) n (%). For the same compound, the Dysphonia [3] was 0 (0.0) n (%), the Eye irritation [3] was 0 (0.0) n (%) and the Headache [3] was 1 (11.1) n (%). For the same compound, the Nausea [3] was 0 (0.0) n (%), the Palpitations [3] was 0 (0.0) n (%) and the Presyncope [3] was 1 (11.1) n (%). For the same compound, the Rhinitis [3] was 0 (0.0) n (%), the Ventricular tachycardia [3] was 0 (0.0) n (%) and the Viral infection [3] was 1 (11.1) n (%). The Abdominal pain [4] was 0 (0.0) n (%), the Anxiety [4] was 1 (16.7) n (%) and the “Any AE” value [4] was 3 (50.0) n (%). For the same compound, the “Any TEAE” value [4] was 3 (50.0) n (%), the “Any TEAE leading to death” value [4] was 0 (0.0) n (%) and the “Any TEAE leading to discontinuation” value [4] was 0 (0.0) n (%). For the same compound, the “Any drug-related treatment-emergent SAE” value [4] was 0 (0.0) n (%), the “Any treatment-emergent SAE” value [4] was 0 (0.0) n (%) and the Back pain [4] was 0 (0.0) n (%). The Constipation [4] was 0 (0.0) n (%), the Dizziness [4] was 1 (16.7) n (%) and the Dizziness postural [4] was 2 (33.3) n (%). For the same compound, the Dry throat [4] was 1 (16.7) n (%), the Dysphonia [4] was 0 (0.0) n (%) and the Eye irritation [4] was 1 (16.7) n (%). The Headache [4] was 1 (16.7) n (%), the Nausea [4] was 0 (0.0) n (%) and the Palpitations [4] was 0 (0.0) n (%). The Presyncope [4] was 0 (0.0) n (%), the Rhinitis [4] was 1 (16.7) n (%) and the Ventricular tachycardia [4] was 0 (0.0) n (%). For the same compound, the Viral infection [4] was 0 (0.0) n (%), the Abdominal pain [5] was 1 (11.1) n (%) and the Anxiety [5] was 0 (0.0) n (%). The “Any AE” value [5] was 3 (33.3) n (%), the “Any TEAE” value [5] was 3 (33.3) n (%) and the “Any TEAE leading to death” value [5] was 0 (0.0) n (%). The “Any TEAE leading to discontinuation” value [5] was 0 (0.0) n (%), the “Any drug-related treatment-emergent SAE” value [5] was 0 (0.0) n (%) and the “Any treatment-emergent SAE” value [5] was 0 (0.0) n (%). The Back pain [5] was 1 (11.1) n (%), the Constipation [5] was 0 (0.0) n (%) and the Dizziness [5] was 1 (11.1) n (%). The Dizziness postural [5] was 0 (0.0) n (%), the Dry throat [5] was 0 (0.0) n (%) and the Dysphonia [5] was 1 (11.1) n (%). The Eye irritation [5] was 0 (0.0) n (%), the Headache [5] was 1 (11.1) n (%) and the Nausea [5] was 0 (0.0) n (%). For the same compound, the Palpitations [5] was 0 (0.0) n (%), the Presyncope [5] was 0 (0.0) n (%) and the Rhinitis [5] was 0 (0.0) n (%). The Ventricular tachycardia [5] was 0 (0.0) n (%), the Viral infection [5] was 0 (0.0) n (%) and the “QT prolongation (electrocardiograms)” value [6] was “no QT prolongation”. The “changes in seated heart rate or BP” value [6] was “no clinically significant changes”, the “subjects with a TEAE considered related to the study drug” value (all baxdrostat groups pooled) was 6 (14.3%) and the “severity of TEAEs” value (all subjects receiving baxdrostat) was “mild”.
